Data: ChEMBL document CHEMBL1201862, “PubChem BioAssay data set” (2004)
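Cells were grown in 96-well plates and exposed to each compound for 48 hours at five concentrations; endpoints were interpolated linearly between bracketing concentrations, or set to the highest concentration if not reached. Here, GI50 denotes the concentration required for 50% inhibition of growth.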 The source made the active and inactive calls. No stated cut-off is given here; in the data, active = GI50 up to about 1.1 µM and inactive = higher.

Key:
Test in all cases: NCI anticancer screen, dose series, 48 h
SNB-19 = test system: SNB-19
BT-549 = test system: BT-549
RXF 393 = test system: RXF 393
EKVX = test system: EKVX
KM12 = test system: KM12
CCRF-CEM = test system: CCRF-CEM
HCC 2998 = test system: HCC 2998
NCI-H522 = test system: NCI-H522
RPMI-8226 = test system: RPMI-8226
MDA-MB-435 = test system: MDA-MB-435
UACC-257 = test system: UACC-257
COLO 205 = test system: COLO 205
DU-145 = test system: DU-145
SNB-75 = test system: SNB-75
HT-29 = test system: HT-29
NCI/ADR-RES = test system: NCI/ADR-RES
HOP-62 = test system: HOP-62
SF-539 = test system: SF-539
CAKI-1 = test system: CAKI-1

Measured: GI50

COc1ccc(OC)c2c(=O)cc(-c3ccccc3)[nH]c12
inactive: SNB-19 > 100 µM | BT-549 > 100 µM | RXF 393 > 100 µM | EKVX > 100 µM | KM12 > 100 µM | CCRF-CEM > 100 µM | HCC 2998 > 100 µM | NCI-H522 7.45 µM | RPMI-8226 > 100 µM | MDA-MB-435 > 100 µM | UACC-257 > 100 µM | COLO 205 > 100 µM | DU-145 > 100 µM | SNB-75 93.3 µM | HT-29 > 100 µM | NCI/ADR-RES > 100 µM | HOP-62 > 100 µM

[N-]=[N+]=Nc1c(Cc2ccccc2)c(=O)oc2ccccc12
inactive: SNB-19 27.2 µM | BT-549 24.5 µM | RXF 393 16.7 µM | CCRF-CEM 12.7 µM | HCC 2998 26 µM | SF-539 > 10 µM | RPMI-8226 33.2 µM | MDA-MB-435 22.3 µM | CAKI-1 23.8 µM | UACC-257 45.8 µM | COLO 205 36.9 µM | DU-145 51.9 µM | SNB-75 28.6 µM | HT-29 21.7 µM | NCI/ADR-RES 27.6 µM | HOP-62 20.7 µM

N#Cc1nc2cc(Cl)ccc2nc1N1CCN(c2ccc([N+](=O)[O-])cc2)CC1
inactive: SNB-19 > 100 µM | BT-549 > 100 µM | RXF 393 > 100 µM | EKVX > 100 µM | KM12 > 100 µM | HCC 2998 18.9 µM | SF-539 > 100 µM | RPMI-8226 > 100 µM | MDA-MB-435 > 100 µM | CAKI-1 > 100 µM | UACC-257 > 100 µM | COLO 205 > 100 µM | DU-145 > 100 µM | SNB-75 > 100 µM | HT-29 > 100 µM | NCI/ADR-RES > 100 µM | HOP-62 > 100 µM

COc1ccc(-c2c3c(n(C4OC(CO)C(O)C(O)C4O)c(=S)c2C#N)CCC3)cc1 (stereo unspecified)
inactive: SNB-19 37.7 µM | BT-549 51.2 µM | RXF 393 22.4 µM | KM12 59.3 µM | CCRF-CEM 32.6 µM | HCC 2998 66.2 µM | SF-539 20.4 µM | RPMI-8226 49.5 µM | MDA-MB-435 33.3 µM | CAKI-1 > 100 µM | UACC-257 > 100 µM | COLO 205 68.9 µM | DU-145 66.7 µM | SNB-75 59.4 µM | HT-29 40.1 µM | NCI/ADR-RES > 100 µM | HOP-62 40 µM

Cc1cc(S(=O)(=O)/N=C2\NCCN2Cc2ccccc2)c(S)cc1Cl
inactive: SNB-19 > 100 µM | BT-549 > 100 µM | EKVX > 100 µM | KM12 > 100 µM | CCRF-CEM 7.35 µM | HCC 2998 > 100 µM | NCI-H522 40.6 µM | SF-539 > 100 µM | RPMI-8226 10.5 µM | MDA-MB-435 > 100 µM | CAKI-1 > 100 µM | UACC-257 > 100 µM | COLO 205 > 100 µM | DU-145 > 100 µM | SNB-75 > 100 µM | HT-29 > 100 µM | NCI/ADR-RES > 100 µM | HOP-62 76.2 µM

CCCCCCOP(=O)(OCCCCCC)OC(C(=O)OC)C(F)(F)F (stereo unspecified)
inactive: SNB-19 > 100 µM | BT-549 > 100 µM | EKVX > 100 µM | KM12 > 100 µM | CCRF-CEM > 100 µM | HCC 2998 > 100 µM | NCI-H522 > 100 µM | SF-539 > 100 µM | RPMI-8226 > 100 µM | MDA-MB-435 > 100 µM | CAKI-1 > 100 µM | UACC-257 > 100 µM | COLO 205 > 100 µM | DU-145 > 100 µM | SNB-75 > 100 µM | HT-29 > 100 µM | NCI/ADR-RES > 100 µM | HOP-62 > 100 µM

CCC(=O)N/S(=N/S(=O)(=O)c1ccccc1)C(Cl)(Cl)Cl (stereo unspecified)
inactive: SNB-19 > 100 µM | BT-549 > 100 µM | RXF 393 > 100 µM | EKVX > 100 µM | KM12 > 100 µM | CCRF-CEM > 100 µM | HCC 2998 > 100 µM | SF-539 > 100 µM | RPMI-8226 > 100 µM | MDA-MB-435 > 100 µM | UACC-257 > 100 µM | COLO 205 > 100 µM | DU-145 > 100 µM | SNB-75 > 100 µM | HT-29 > 100 µM | NCI/ADR-RES > 100 µM | HOP-62 > 100 µM

CN(C)C1(N(C)C)Oc2c(c(=O)n(C)c(=O)n2C)C(c2ccccc2)C1(F)F (stereo unspecified)
inactive: SNB-19 > 100 µM | BT-549 > 100 µM | RXF 393 > 100 µM | EKVX > 100 µM | KM12 > 100 µM | CCRF-CEM > 100 µM | HCC 2998 > 100 µM | RPMI-8226 > 100 µM | MDA-MB-435 > 100 µM | CAKI-1 > 100 µM | UACC-257 > 100 µM | COLO 205 > 100 µM | DU-145 > 100 µM | SNB-75 > 100 µM | NCI/ADR-RES > 100 µM | HOP-62 > 100 µM
